Experiment [1] concerns the target T1, Mu-type opioid receptor (Cavia porcellus, UniProt P97266). Put plainly: Binding affinity against mu-opioid receptor in guinea pig brain membranes. The format is cell membranes, Membrane.
For experiment [2], the target named is T2, Kappa-type opioid receptor (Cavia porcellus, UniProt P41144). Kind of experiment: Binding affinity against kappa-opioid receptor in guinea pig brain membranes. In kind it is cell membranes, Membrane.
Experiment [3] has as its target Delta-type opioid receptor (Mus musculus, UniProt P32300). Kind of experiment: Antagonist activity against delta-opioid receptor in mouse vas deferens in the presence of DADLE. The format is functional, tissue-based.
Experiment [4] addresses T1, Mu-type opioid receptor. Put plainly: Antagonist activity against mu-opioid receptor in guinea pig ileum in the presence of morphine. In kind it is functional, tissue-based.
Experiment [5] concerns the target T2, Kappa-type opioid receptor. Put plainly: Antagonist activity against kappa-opioid receptor in guinea pig ileum in the presence of ethylketazocine. In kind it is functional, tissue-based.

T1 sequence (P97266 whole entry): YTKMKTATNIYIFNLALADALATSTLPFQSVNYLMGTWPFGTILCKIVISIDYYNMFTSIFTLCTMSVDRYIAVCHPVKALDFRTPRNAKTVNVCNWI
T2 sequence (P41144 whole entry): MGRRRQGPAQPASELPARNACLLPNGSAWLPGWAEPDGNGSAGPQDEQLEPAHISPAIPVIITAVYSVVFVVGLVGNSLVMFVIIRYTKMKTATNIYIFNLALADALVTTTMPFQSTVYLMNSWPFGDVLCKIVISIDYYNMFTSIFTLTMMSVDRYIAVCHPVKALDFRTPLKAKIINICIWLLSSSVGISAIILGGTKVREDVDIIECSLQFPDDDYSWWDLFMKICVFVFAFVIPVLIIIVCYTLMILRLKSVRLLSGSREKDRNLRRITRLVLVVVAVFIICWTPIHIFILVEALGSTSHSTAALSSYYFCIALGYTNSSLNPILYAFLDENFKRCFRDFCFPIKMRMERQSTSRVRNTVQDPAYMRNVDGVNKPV
Delta-type opioid receptor, sequence (P32300 whole entry): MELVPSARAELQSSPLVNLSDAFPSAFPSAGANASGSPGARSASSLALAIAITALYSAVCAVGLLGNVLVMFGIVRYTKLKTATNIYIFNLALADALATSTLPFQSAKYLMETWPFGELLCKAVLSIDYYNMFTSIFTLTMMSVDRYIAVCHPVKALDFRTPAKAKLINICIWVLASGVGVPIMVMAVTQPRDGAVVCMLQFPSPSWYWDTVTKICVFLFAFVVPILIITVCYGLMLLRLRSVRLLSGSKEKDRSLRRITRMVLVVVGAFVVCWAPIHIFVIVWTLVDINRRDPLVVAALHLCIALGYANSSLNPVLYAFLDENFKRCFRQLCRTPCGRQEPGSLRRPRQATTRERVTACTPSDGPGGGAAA

Consider `Oc1ccc2c3c1O[C@H]1Cc4c([nH]c5ccccc45)[C@H]4[C@@H](C2)N(CC2CC2)CC[C@]314`, for which the Ki (usually a dissociation constant, usually derived from enzyme kinetics or from competition with a known ligand) at Mu-type opioid receptor [1] was found to be 0.0049 µM; in experiment [2], 0.033 µM. Besides, the IC50 (as a rule, the midpoint of a concentration-inhibition curve) in experiment [3] worked out at 8.2 µM.
Regarding `Oc1ccc2c3c1O[C@H]1c4[nH]c5ccccc5c4C[C@@]4(O)[C@@H](C2)N(CC2CC2)CC[C@]314` [NALTRINDOLE], the concentration for half-maximal inhibition (IC50) stood at 11.2 µM at Mu-type opioid receptor [4], 2 µM in experiment [5] and 459 µM in experiment [3].
In the same order, the values of `CN1CC[C@]23c4c5ccc(O)c4O[C@H]2Cc2c([nH]c4ccccc24)[C@H]3[C@H]1C5` are 0.92 µM, 0.99 µM and 1 µM.

Source of the values: ChEMBL document CHEMBL1127549, “Synthesis and delta-opioid receptor antagonist activity of a naltrindole analogue with a regioisomeric indole moiety” (J Med Chem, 1994).
